The record followed here is US9650369B2, “Anti-migration and anti-invasion thiazole analogs for treatment of cellular proliferative disease” (XAVIER UNIVERSITY OF LOUISIANA, priority 2012, dated 2017).

Common to all, as to type: cell-based
The test system of data set [1] is MDA-MB-231 breast cancer cells. The data set can be described thus: clonogenic assay (colony formation), MDA-MB-231. Particulars: for activity at 10 µM / inhibition at 10 µM: Homo sapiens, 336 h; for activity at 10 µM / Effect on cell proliferation (colony formation) (% of vehicle control): MDA-MB-231, 10 μM analogs, 14 days; for activity at 10 µM: read-out: Effect on cell proliferation (colony formation) (% of vehicle control); for cytotoxicity (in words) / inhibition at 10 µM: MDA-MB-231, 10 μM, two weeks. The procedure:
(§1) To determine if these analogs have anti-migration and anti-invasion activities in different cancer cell lines, transwell migration assays were performed using MDA-MB-231 breast cancer cells (FIG. 3) and HeLa cells (FIG. 5) for all synthetic analogs. […] Next, clonogenic assays were performed on the breast cancer cells treated with the compounds to rule out any indirect effect on cell migration due to cytotoxicity (FIG. 4). MDA-MB-231 cells were allowed to grow for 14 days in six-well plates in the presence or absence of the synthetic compounds at 10 μM.
To rule out any indirect effect on cell migration due to cytotoxicity, clonogenic assays were performed on the breast cancer cells treated with the compounds. MDA-MB-231 cells were allowed to grow for 14 days in six-well plates in the presence or absence of the synthetic compounds at 10 μM. […] For example, analog 3g blocked both cell migration (81.4%) and colony formation (42.7%). For these analogs cytotoxity may have partially contributed to their overall anti-migration effect. The cell toxicity data for all analogs are listed in Table 1 along with anti-migration data for comparison.

The test system of data set [2] is MDA-MB-231 breast cancer cells. The data set can be described thus: transwell migration assay, MDA-MB-231. Particulars: for inhibition at 10 µM: MDA-MB-231, MDA-MB-231, 10 μM, read-out: inhibition of cell migration; for IC50: transwell migration of MDA-MB-231 cells, read-out: IC50 (anti-migration). The procedure: as §1
To determine the effects of the synthesized mackroketone analogs on cancer cell migration, we performed transwell migration assay on each compound using an invasive and metastatic breast cancer cell line, MDA-MB-231. When cells were seeded at a density of 2.5×10^4 in media free of serum in the upper chamber but containing 5% FBS in the lower chamber, their ability to migrate in the presence and absence of 10 μM analogs were measured by counting the total number of cells in the lower chamber after 24 hrs.

Data set [3] concerns HeLa cells. Description: colony formation, HeLa. The text has this: (§2) Based on the potent effects of synthetic thiazole analogs in blocking migration of MDA-MB-231 cells, ten analogs with high anti-migration activity but low or negligible cytotoxicity were selected to test their anti-migration activity in another metastatic cell line, HeLa. […] On the other hand, the analog 5i was not toxic to 231 cells, but it suppressed the clonogenic capability of HeLa cells by 45%. […] Thus 5k may be further evaluated for its potential as an anti-migration and anti-metastatic agent.

The test system of data set [4] is fascin in MDA-MB-231 cells. Description: fascin localization by immunofluorescence microscopy. The text has this:
Co-localization of f-actin and fascin appears as white pixels.
To further probe for a possible role of fascin in the reduction of actin-rich membrane protrusions, we determined the localization of fascin by immunofluorescence microscopy.

Data set [5] has as its system A549 non small cell lung cancer cells. The data set can be described thus: migration assay, A549. Particulars: A549, 10 μM.
Data set [6] has as its system HeLa cells. The data set can be described thus: transwell migration, HeLa. As to conditions: Homo sapiens. The procedure: as §1, §2
Data set [7] relates to MDA-MB-231 breast cancer cells. Description: matrigel invasion assay, MDA-MB-231. As to conditions: MDA-MB-231, matrigel. The text has this: To determine if the synthetic thiazole analogs block invasion of metastatic cancer cells we performed matrigel invasion assays of MDA-MB-231 cells treated with 10 selected analogs.
Data set [8] relates to f-actin in membrane protrusions of MDA-MB-231 cells. Description: f-actin staining of actin-rich membrane protrusions (fluorescent microscopy). Particulars: MDA-MB-231, 10 μM, serum stimulated 2 hours; p<0.01. The text has this:
An essential component of migration is protrusion of the cell membrane, which is driven by actin polymerization. […] See Chen, L.; Yang. S.; Jakoncic, J.; Zhang, J. J.; Huang, X. Y. Migrastatin analogues target fascin to block tumour metastasis. Nature 2010; 464:1062-1066. Erratum in: Nature. 2011; 476:240; Hashimoto, Y., D. J. Kim, and J. C. Adams. The roles of fascins in health and disease. J. Pathol. 2011; 224:289-300; and Jayo, A., and M. Parsons. Fascin: a key regulator of cytoskeletal dynamics. Int. J. Biochem. Cell Biol. 2010; 42:1614-1617. […] See Chen, 2010. Thus, we tested the hypothesis that compound 5k interferes with f-actin in membrane protrusions associated with cell motility. MDA-MB-231 cells were serum starved −/+10 μM 5k, then stimulated with serum for 2 hours to induce actin-rich membrane protrusions, which were analyzed by fluorescent microscopy.

“Also recorded” adds a separate entry of the source. Read-outs that look alike come from different tables or passages of the source.

For the compound `Cc1ccc(-c2csc(N)n2)c(C)c1` [Compound 2b, 2-Amino-4-(2,4-dimethylphenyl)thiazole], in data set [1], the activity at 10 µM was 111% and the “cytotoxicity (in words)” value is “no apparent cell toxicity”. For the same compound, the inhibition at 10 µM in data set [2] (Homo sapiens) is above 50%.

`O=C(Nc1nc(-c2ccccc2)cs1)c1cccs1` [Compound 3a, N-(4-Phenylthiazol-2-yl)thiophene-2-carboxamide]: the activity at 10 µM in data set [1] came to 85.9%. For the same compound, in data set [2] (Homo sapiens), the IC50 was determined as 2.49 µM.

In the case of `COc1ccc(C(=O)Nc2nc(-c3ccccc3)cs2)cc1OC` [Compound 3g, 3,4-Dimethoxy-N-(4-phenylthiazol-2-yl)benzamide], in data set [1], the activity at 10 µM is 57.3% and the inhibition at 10 µM turned out to be 42.7%. For the same compound, in data set [2] (Homo sapiens), the inhibition at 10 µM is above 80%.

With `O=C(Nc1nc(-c2ccccc2)cs1)c1ccncc1` [Compound 3i, N-(4-Phenylthiazol-2-yl)isonicotinamide], the activity at 10 µM in data set [1] is 95.5%. The IC50 in data set [2] (Homo sapiens) worked out at 2.87 µM.

As to `O=C(Nc1nc(-c2ccccc2)cs1)c1ccccc1` [Compound 3j, N-(4-Phenylthiazol-2-yl)benzamide], the activity at 10 µM in data set [1] is 105%. In addition, the IC50 in data set [2] (Homo sapiens) was 1.29 µM.

As to `CCCCCCCCCCCC(=O)Nc1nc(-c2ccccc2)cs1` [Compound 3n, N-(4-Phenylthiazol-2-yl)dodecanamide], in data set [1], the activity at 10 µM was found to be 71.5%, the inhibition at 10 µM was determined as 30% and the “cytotoxicity (in words)” value is “no apparent cell toxicity”. In data set [2] (Homo sapiens), the inhibition at 10 µM is above 50% and the IC50 was 1.01 µM. In the data set on HeLa cells [3], the “cytotoxicity (in words)” value is “no apparent cytotoxicity”.

Take `Cc1ccc(-c2csc(NC(=O)c3ccccc3)n2)c(C)c1` [Compound 3o, N-(4-(2,4-dimethylphenyl)thiazol-2-yl)benzamide]: the activity at 10 µM in data set [1] came to 85%. In addition, the IC50 in data set [2] (Homo sapiens) was 0.839 µM.

For `CCN(C(=O)c1ccco1)c1nc(-c2ccccc2)cs1` [Compound 4d, N-Ethyl-N-(4-phenylthiazol-2-yl)furan-2-carboxamide], in data set [1], the activity at 10 µM is 96.5%.

As to `CN(C(=O)c1ccccc1)c1nc(-c2ccccc2)cs1` [Compound 4e, N-Methyl-N-(4-phenylthiazol-2-yl)benzamide], in data set [1], the activity at 10 µM worked out at 123% and the “cytotoxicity (in words)” value is “no apparent cell toxicity”. Moreover, in data set [2] (Homo sapiens), the inhibition at 10 µM was above 50% and the IC50 was 0.366 µM.

With `CN(C(=O)C1CCCC1)c1nc(-c2ccccc2)cs1` [Compound 4f, N-Methyl-N-(4-phenylthiazol-2-yl)cyclopentanecarboxamide], the activity at 10 µM in data set [1] amounted to 132%.

On to `CN(C(=O)C1CCCCC1)c1nc(-c2ccccc2)cs1` [Compound 4g, N-Methyl-N-(4-phenylthiazol-2-yl)cyclohexanecarboxamide], for which, in data set [1], the activity at 10 µM turned out to be 97.5%.

Consider `CCCCCC(=O)N(C)c1nc(-c2ccccc2)cs1` [Compound 4h, N-Methyl-N-(4-phenylthiazol-2-yl)hexanamide], for which the activity at 10 µM in data set [1] is 128%.

For the compound `CCCCCCCCCCCC(=O)N(C)c1nc(-c2ccccc2)cs1` [Compound 4i, N-Methyl-N-(4-phenylthiazol-2-yl)dodecanamide], the activity at 10 µM in data set [1] is 111%.

Turning to `Cn1c(-c2ccccc2)cs/c1=N/C(=O)c1cccs1` [Compound 5a, N-(3-Methyl-4-phenylthiazol-2(3H)-yliene)thiophene-2-carboxamide], the activity at 10 µM in data set [1] was found to be 85%.

Take `Cn1c(-c2ccccc2)cs/c1=N/C(=O)c1ccco1` [Compound 5b, N-(3-Methyl-4-phenylthiazol-2(3H)-yliene)furan-2-carboxamide]: the activity at 10 µM in data set [1] is 107%.

As to `Cn1c(-c2ccccc2)csc1=NC(=O)c1ccc(Cl)cc1` [Compound 5c, 4-Chloro-N-(3-methyl-4-phenylthiazol-2(3H)-ylidene)benzamide], the activity at 10 µM in data set [1] is 98.2%. The IC50 in data set [2] (Homo sapiens) is 1.12 µM.

As to `Cn1c(-c2ccccc2)cs/c1=N/C(=O)c1ccc(Br)cc1` [Compound 5d, 4-Bromo-N-(3-methyl-4-phenylthiazol-2(3H)-yliene)benzamide], in data set [1], the activity at 10 µM stood at 63.8%.

With `COc1cc(C(=O)/N=c2/scc(-c3ccccc3)n2C)cc(OC)c1OC` [Compound 5e, 3,4,5-Trimethoxy-N-(3-methyl-4-phenylthiazol-2(3H)-yliene)benzamide], the activity at 10 µM in data set [1] amounted to 75.4%.

Regarding `Cc1ccc(-c2cs/c(=N/C(=O)c3cccs3)n2C)c(C)c1` [Compound 5f, N-(4-(2,4-dimethylphenyl)-3-methylthiazol-2(3H)-yliene)thiophene-2-carboxamide], the activity at 10 µM in data set [1] is 102%.

For the compound `COc1ccc(C(=O)N=c2scc(-c3ccccc3)n2C)cc1OC` [Compound 5g, 3,4-Dimethoxy-N-(3-methyl-4-phenylthiazol-2(3H)-yliene)benzamide], in data set [1], the “Effect on cell proliferation (colony formation) (% of vehicle control)” value was 40.9%.

Turning to `Cn1c(-c2ccccc2)cs/c1=N/C(=O)c1cccnc1` [Compound 5h, N-(3-Methyl-4-phenylthiazol-2(3H)-yliene)nicotinamide], in data set [1], the activity at 10 µM was found to be 112%.

As to `CCn1c(-c2ccccc2)csc1=NC(=O)c1cccs1` [Compound 5i, N-(3-Ethyl-4-phenylthiazol-2(3H)-yliene)thiophene-2-carboxamide], in data set [1], the “Effect on cell proliferation (colony formation) (% of vehicle control)” value is reported as 97.7% and the “cytotoxicity (in words)” value is reported as “not toxic”. In addition, the IC50 in data set [2] was 2.08 µM. Besides, the “suppression of clonogenic capability” value with HeLa cells [3] is recorded as 45%.

Consider `Cn1c(-c2ccccc2)cs/c1=N/C(=O)c1ccccc1` [Compound 5j, N-(3-Methyl-4-phenylthiazol-2(3H)-yliene)benzamide], for which, in data set [1], the activity at 10 µM was found to be 25.2%, the inhibition at 10 µM stood at 75% and the “cytotoxicity (in words)” value was “strong inhibitor of cell proliferation”. Moreover, the IC50 in data set [2] (Homo sapiens) amounted to 0.189 µM. Further, the “cytotoxicity (in words)” value in the data set with HeLa cells [3] was “strong inhibitor of cell proliferation”.

`Cc1ccc(-c2cs/c(=N/C(=O)c3ccccc3)n2C)c(C)c1` [Compound 5k, N-(4-(2,4-Dimethylphenyl)-3-methylthiazol-2(3H)-yliene)-benzamide]: the “localization of fascin in actin-rich membrane regions (in words)” value in data set [4] is reported as “notably missing from the actin-rich membrane regions”. Besides, in data set [1], the activity at 10 µM came to 121% and the “cytotoxicity (in words)” value is “no apparent cell toxicity; also recorded: no apparent cytotoxity”. In addition, the “loss of migratory capacity” value in data set [5] is around 80%. Further, the IC50 in data set [2] (Homo sapiens) amounted to 0.176 µM. Besides, the inhibition at 10 µM in the data set with HeLa cells [6] is above 85%. Besides, in data set [7], the “blocking cell invasion (in words)” value is recorded as “most potent compound in blocking cell invasion”. The “cytotoxicity (in words)” value with HeLa cells [3] was “no apparent cytotoxity”. The “reduction in f-actin intensity” value in data set [8] is given as 55%.
